Assay results reported in US5538962A, “Antibiotic penem compounds” (Zeneca Limited, priority 1992, dated 1996).
Converted amounts (≈) assume the structure as drawn.

Experiments:
Test in all cases: MIC, in vitro Diagnostic Sensitivity Test, agar-dilution technique
Format in all cases: cell-based
E. coli TEM = conditions: Escherichia coli, read-out: minimum inhibitory concentration (MIC)
Excerpt: (§1) The following results were obtained for representative compounds on a standard in vitro test system using Diagnostic Sensitivity Test. The antibacterial activity is described in terms of the minimum inhibitory concentration (MIC) determined by the agar-dilution technique with an inocukum size of 10^4 CFU/spot.

Enterbacter cloacae 108 = conditions: inoculum 10^4 CFU/spot, read-out: minimum inhibitory concentration (MIC)
Excerpt: as §1

Enterobacter cloacae 029 = conditions: inoculum 10^4 CFU/spot, read-out: minimum inhibitory concentration (MIC)
Excerpt: as §1

S. aureus 147N = conditions: Staphylococcus aureus, inoculum 10^4 CFU/spot, read-out: minimum inhibitory concentration (MIC)
Excerpt: as §1

Row | SMILES | MIC (E. coli TEM) | MIC (Enterbacter cloacae 108) | MIC (Enterobacter cloacae 029) | MIC (S. aureus 147N)
1 | CC(O)C1C(=O)N2C(C(=O)O)=C(SC3CNC(C(=O)Nc4csc(C(=O)O)c4)C3)SC12 [Example 1, (5R,6S,8R,2'S,4'S)-2-(2-(2-carboxy-4-thienylcarbamoyl)pyrrolidin-4-ylthio)-6-(1-hydroxyethyl)pen-2-em-3-carboxlic acid] | 0.008 µg/mL (≈ 0.0165 µM) | 0.5 µg/mL (≈ 1.03 µM) | 0.015 µg/mL (≈ 0.0309 µM) | 0.125 µg/mL (≈ 0.257 µM)
2 | CO/N=C(\C(=O)N[C@@H]1C(=O)N2C(C(=O)O)=C(CSc3nc(=O)c(=O)[nH]n3C)CS[C@H]12)c1csc(N)n1 [ceftriaxone] | 0.03 µg/mL (≈ 0.0541 µM) | 32 µg/mL (≈ 57.7 µM) | 0.06 µg/mL (≈ 0.108 µM) | 2 µg/mL (≈ 3.61 µM)
